Experimental data reported in US20130303500A1, “COMPOUNDS AND METHODS FOR TREATING NEOPLASIA” (Medexis S.A., priority 2010, published 2013).

Legend:
[1] = target: Na+/K+-ATPase (Adenosine 5′-Triphosphatase isolated from porcine cerebral cortex); test: Na+/K+-ATPase inhibitory activity, colorimetric Adenosine 5′-Triphosphatase Enzymatic Assay (Sigma); format: biochemical; conditions: enzyme from porcine cerebral cortex, 0.5 units/ml
Method: The compound inhibitory effect on ATPase activity was assessed in vitro using the colorimetric Adenosine 5′-Triphosphatase Enzymatic Assay of Sigma (St. Louis, Mo.) according to the manufacturer's instructions. This assay utilizes Adenosine 5′-Triphosphatase isolated from porcine cerebral cortex. Each reaction was performed in a final volume of […] using 0.5 units/ml enzyme in the presence of the different inhibitors. […] IC50 values were determined using the Origin® program software (OriginLab, Northampton, Mass.).

[2] = tested on: A549 (Lung) cells; test: Sulforhodamine B (SRB) assay, A549; format: cell-based; conditions: Homo sapiens; for CC50: A549, 48 h, read-out: LC50; for GI50 / IC (TGI): A549 Lung, SRB, 48 h
Method: (§1) Sulforhodamine B (SRB) assays were performed according to standard National Cancer Institute Guidelines. Briefly, human tumor cells from different cancer panels were seeded into 96 well plates in […] (plating densities ranging from 5-40,000 cells/well depending on the doubling time of individual cell lines) in serum-containing media for twenty-four hours prior to the addition of the compounds to be assayed. After 24 hours, one plate of each cell line was fixed in situ with trichloroacetic acid (TCA). The fixed slides were used to determine the cell population for each cell line at the time of drug addition (Tz). Each compound to be tested was solubilized in dimethyl sulfoxide (DMSO) and the desired concentration was then added to the medium and diluted serially 1:10 to provide a total of five or ten drug concentrations plus control (in a final volume of 200 μL). The starting dose before any dilution was 100 uM for all compounds.
(§2) Following drug addition, each culture was incubated for forty-eight hours. The assay was terminated with the addition of cold TCA. The supernatant was discarded, and the plates were washed with tap water and air dried. SRB solution was then added to each well. After staining, the bound stain was solubilized and the absorbance was read on an automated plate reader at a wavelength of 515 nm.
(§3) Using the absorbance measurements [time zero, (Tz), control growth, (C), and test growth in the presence of drug at the ten concentration levels (Ti)], the percentage growth was calculated at each of the drug concentrations levels. Percentage growth inhibition was calculated as:
(§4) [(Ti−Tz)/(C−Tz)]×100 for concentrations for which Ti>/=Tz
(§5) [(Ti−Tz)/Tz]×100 for concentrations for which Ti<Tz.
(§6) Three dose response parameters were calculated for each experimental agent. Growth inhibition of 50% (GI50) was calculated from [(Ti−Tz)/(C−Tz)]×100=50, which was the drug concentration resulting in a 50% reduction in the net protein increase (as measured by SRB staining) in control cells during the drug. The drug concentration resulting in total growth inhibition (TGI) was calculated from Ti=Tz. The LC50 (concentration of drug resulting in a 50% reduction in the measured protein at the end of the drug treatment as compared to that at the beginning) indicating a net loss of cells following treatment was calculated from [(Ti−Tz)/Tz]×100=−50.
(§7) Values were calculated for each of these three parameters when the level of activity was reached; however, if the effect was not reached or was exceeded, the value for that parameter was expressed as greater or less than the maximum or minimum concentration tested.

[3] = tested on: PC3 (Prostate) cells; test: Sulforhodamine B (SRB) assay, PC3; format: cell-based; conditions: Homo sapiens, Prostate cell, 48 h; for CC50: read-out: LC50; for GI50 / IC (TGI): PC3 Prostate, SRB
Method: as §1, §2, §3, §4, §5, §6, §7

[4] = tested on: SF268 (CNS) cells; test: Sulforhodamine B (SRB) assay, SF268; format: cell-based; conditions: Homo sapiens; for CC50: SF-268, 48 h, read-out: LC50; for GI50 / IC (TGI): SF-268, SF268 CNS, SRB, 48 h
Method: as §1, §2, §3, §4, §5, §6, §7

[5] = tested on: DU145 (Prostate) cells; test: MTT cell proliferation/viability assay, DU145; format: cell-based; conditions: Homo sapiens, DU-145, 72 h
Method: (§8) Cell proliferation/viability was assessed by the MTT [3-(4,5-dimethylthiazol-2-yl)-2,5-diphenyltetrazolium bromide] assay, which is commercially available (Sigma, St. Louis, Mo.). Cells were cultured in 96-well plates for twenty-four hours (7-10.000 cells/well) and incubated with various concentrations of the different compounds—as indicated in the Figures—in serum-containing medium (or left untreated) for seventy-two hours. At the end of incubation, the medium was aspirated and MTT dissolved in RPMI 1640 w/o phenol red was added to each well to a final concentration of 0.25 mg/ml. After four hours incubation in the dark (37° C., 5% CO2) the supernatant was discarded. The converted dye (blue formazan crystals) was solubilized by adding 200 μl dimethylsulfoxide to each well. Absorbance was measured at 550 nm with reference at 655 nm using a spectrophotometer with the respective filters. All assays were performed in triplicate.
(§9) The effect of the different compounds on the proliferation and viability of two cancer cell lines (DU145/prostate and CAKI/renal) was tested through quantitative (4,5-dimethylthiazol-2-yl)-2,5-diphenyltetrazolium bromide (MTT) assays.

[6] = tested on: CAKI (Renal) cells; test: MTT cell proliferation/viability assay, CAKI; format: cell-based; conditions: 72 h
Method: as §8, §9

[7] = tested on: 7 different cell lines (lung, ovarian, prostate, CNS, breast, colon); test: SRB assays across 7 cell lines; format: cell-based, human; conditions: for viability and/or cell proliferation of cell lines: cell lines representative of lung, breast, CNS, prostate, ovarian, colon and renal neoplasias
Method: as §1, §2, §3, §4, §5, §6, §7
SRB provides a colorimetric measure of a compound's anti-cancer activity. SRB assays were performed with compounds of the invention in 7 different cell lines, which represent six different tumor panels (lung, ovarian, prostate, CNS, breast, colon).

SMILES	IC50 [1] [µM]	CC50 [2] [µM]	GI50 [2] [µM]	IC (TGI) [2] [µM]	CC50 [3] [µM]	GI50 [3] [µM]	IC (TGI) [3] [µM]	CC50 [4] [µM]	GI50 [4] [µM]	IC (TGI) [4] [µM]	IC50 [5] [µM]	IC50 [6] [µM]	GI50 ([7]; Homo sapiens, SRB, average over cell lines) [µM]	viability and/or cell proliferation of cell lines [7]	GI50 action in most cell lines ([7]; SRB, most cell lines)
C[C@]12CCC(=NOC3CCNC3)CC1C(=O)CC1C2CC[C@]2(C)C(=O)C(F)CC12 (stereo partly drawn) [Compound 4, (10R,13S,16R)-16a-fluoro-10,13-dimethyl-3-((S)-pyrrolidin-3-yloxyimino)-tetradecahydro-14H-cyclopenta[a]phenanthrene-6,17-dione]	0.194	1.01	0.43	0.723	8.04	0.731	3.24	6.98	0.277	0.782	2.7	5	< 1	reduced the viability and/or cell proliferation	
CC(=O)OC[C@]12CCC(=NO[C@@H]3CCNC3)C[C@@H]1CCC1C2CC[C@]2(C)C(=O)CCC12 (stereo partly drawn) [Compound 48, ((5S,10R,13S)-13-methyl-17-oxo-3-((R)-pyrrolidin-3-yloxyimino)-hexadecahydro-1H-cyclopenta[a]phenanthren-10-yl)methyl acetate]	2.88	102	6.31	38300	> 100	8.77	> 100	101	11.5	56400	11.6	41.3		reduced the viability and/or cell proliferation	single-digit micromolar
